# Experimental data reported in ChEMBL document CHEMBL3044818, “Fungicide resistance status in French populations of the wheat eyespot fungi Oculimacula acuformis and Oculimacula yallundae” (Pest Manag Sci, 2013).
# Assays:
# [1] = system: Oculimacula yallundae; assay: Resistance index, ratio of EC50 for sterol 14alpha-demethylation inhibitor-resistant Oculimacula yallundae TriR2 to EC50 for sterol 14alpha-demethylation inhibitor-resistant Oculimacula yallundae TriR1 by germ tube elongation assay; assay type: functional
# [2] = system: Oculimacula yallundae; assay: Fungicidal activity against Oculimacula yallundae assessed as inhibition of germ tube elongation incubated at 19 degC in dark for 48 hr; assay type: functional, organism-based
# [3] = system: Oculimacula acuformis; assay: Fungicidal activity against Oculimacula acuformis assessed as inhibition of mycelial growth in presence of 10 g glucose incubated at 19 degC in dark for 4 weeks; assay type: functional, organism-based; conditions: 672 h
# [4] = system: Oculimacula yallundae; assay: Resistance index, ratio of EC50 for sterol 14alpha-demethylation inhibitor-resistant Oculimacula yallundae TriR1 to EC50 for wild type Oculimacula yallundae TriS by germ tube elongation assay; assay type: functional
# [5] = Selectivity index, ratio of EC50 for Oculimacula acuformis to EC50 for Oculimacula yallundae in presence of 10 g glucose by mycelial growth inhibition assay; assay type: functional
# [6] = system: Oculimacula yallundae; assay: Resistance index, ratio of EC50 for sterol 14alpha-demethylation inhibitor-resistant Oculimacula yallundae MDR to EC50 for sterol 14alpha-demethylation inhibitor-resistant Oculimacula yallundae TriR1 by mycelial growth inhibition assay; assay type: functional
# [7] = Selectivity index, ratio of EC50 for Oculimacula acuformis to EC50 for Oculimacula yallundae by germ tube elongation inhibition assay; assay type: functional
# [8] = system: Oculimacula yallundae; assay: Resistance index, ratio of EC50 for sterol 14alpha-demethylation inhibitor-resistant Oculimacula yallundae TriR1 to EC50 for wild type Oculimacula yallundae TriS by mycelial growth inhibition assay; assay type: functional
# [9] = system: Oculimacula acuformis; assay: Fungicidal activity against Oculimacula acuformis assessed as inhibition of mycelial growth in presence of 5 g sodium succinate incubated at 19 degC in dark for 4 weeks; assay type: functional, organism-based; conditions: 672 h
# [10] = system: Oculimacula yallundae; assay: Resistance index, ratio of EC50 for sterol 14alpha-demethylation inhibitor-resistant Oculimacula yallundae MDR to EC50 for sterol 14alpha-demethylation inhibitor-resistant Oculimacula yallundae TriR1 by germ tube elongation assay; assay type: functional
# [11] = system: Oculimacula yallundae; assay: Fungicidal activity against Oculimacula yallundae assessed as inhibition of mycelial growth in presence of 10 g glucose incubated at 19 degC in dark for 4 weeks; assay type: functional, organism-based; conditions: 672 h
# [12] = system: Oculimacula yallundae; assay: Resistance index, ratio of EC50 for sterol 14alpha-demethylation inhibitor-resistant Oculimacula yallundae TriR2 to EC50 for sterol 14alpha-demethylation inhibitor-resistant Oculimacula yallundae TriR1 by mycelial growth inhibition assay; assay type: functional
# [13] = Selectivity index, ratio of EC50 for Oculimacula acuformis to EC50 for Oculimacula yallundae in presence of 5 g sodium succinate by mycelial growth inhibition assay; assay type: functional
# [14] = system: Oculimacula yallundae; assay: Resistance index, ratio of EC50 for sterol 14alpha-demethylation inhibitor-resistant Oculimacula yallundae TriR2 to EC50 for wild type Oculimacula yallundae TriS by mycelial growth inhibition assay; assay type: functional
# [15] = system: Oculimacula yallundae; assay: Resistance index, ratio of EC50 for sterol 14alpha-demethylation inhibitor-resistant Oculimacula yallundae MDR to EC50 for wild type Oculimacula yallundae TriS by germ tube elongation assay; assay type: functional
# [16] = system: Oculimacula yallundae; assay: Resistance index, ratio of EC50 for sterol 14alpha-demethylation inhibitor-resistant Oculimacula yallundae MDR to EC50 for wild type Oculimacula yallundae TriS by mycelial growth inhibition assay; assay type: functional
# [17] = system: Oculimacula yallundae; assay: Fungicidal activity against Oculimacula yallundae assessed as inhibition of mycelial growth in presence of 5 g sodium succinate incubated at 19 degC in dark for 4 weeks; assay type: functional, organism-based; conditions: 672 h
# [18] = system: Oculimacula yallundae; assay: Resistance index, ratio of EC50 for sterol 14alpha-demethylation inhibitor-resistant Oculimacula yallundae TriR2 to EC50 for wild type Oculimacula yallundae TriS by germ tube elongation assay; assay type: functional
# [19] = system: Oculimacula acuformis; assay: Fungicidal activity against Oculimacula acuformis assessed as inhibition of germ tube elongation incubated at 19 degC in dark for 48 hr; assay type: functional, organism-based
compound,measurement,setting,value
O=C(Nc1ccccc1-c1ccc(Cl)cc1)c1cccnc1Cl [BOSCALID],Ratio EC50,[1],1.2
same,EC50,[2],0.03 µg/mL
same,EC50,[3],0.3 µg/mL
same,Ratio EC50,[4],1.1
same,Ratio EC50,[5],0.08
same,Ratio EC50,[6],10
same,Ratio EC50,[7],0.8
same,Ratio EC50,[8],0.8
same,EC50,[9],0.3 µg/mL
same,Ratio EC50,[10],4.5
same,EC50,[11],0.4 µg/mL
same,Ratio EC50,[12],1.3
same,Ratio EC50,[13],0.06
same,Ratio EC50,[14],1
same,Ratio EC50,[15],5
same,Ratio EC50,[16],7.5
same,EC50,[17],5 µg/mL
same,Ratio EC50,[18],1.3
same,EC50,[19],0.025 µg/mL
